Assay results published in PubChem BioAssay (NCI).
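In this assay, cells in 96-well plates receive the compound at five concentrations for 48 hours. Endpoints are linearly interpolated between the surrounding concentrations. Here, GI50 denotes the concentration required for 50% inhibition of growth. TGI: concentration producing complete growth inhibition.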

Key:
Assay in all cases: DTP human tumour cell line panel, 48 h
SK-MEL-28 melanoma = test system: SK-MEL-28 melanoma
MOLT-4 leukemia = test system: MOLT-4 leukemia
CAKI-1 renal = test system: CAKI-1 renal
NCI-H226 lung = test system: NCI-H226 lung
PC-3 prostate = test system: PC-3 prostate
UACC-62 melanoma = test system: UACC-62 melanoma
T-47D breast = test system: T-47D breast
IGROV1 ovarian = test system: IGROV1 ovarian
BT-549 breast = test system: BT-549 breast
SF-539 CNS = test system: SF-539 CNS
ACHN renal = test system: ACHN renal
CCRF-CEM leukemia = test system: CCRF-CEM leukemia
HOP-62 NSCLC = test system: HOP-62 NSCLC
COLO 205 colon = test system: COLO 205 colon
RPMI-8226 leukemia = test system: RPMI-8226 leukemia
NCI-H522 lung = test system: NCI-H522 lung
HCT-116 colon = test system: HCT-116 colon
SF-295 CNS = test system: SF-295 CNS
HS 578T breast = test system: HS 578T breast
SN12C renal = test system: SN12C renal
NCI-H460 lung = test system: NCI-H460 lung
SK-OV-3 ovarian = test system: SK-OV-3 ovarian
UACC-257 melanoma = test system: UACC-257 melanoma
EKVX NSCLC = test system: EKVX NSCLC
SNB-19 CNS = test system: SNB-19 CNS
TK-10 renal = test system: TK-10 renal
SR leukemia = test system: SR leukemia
HL-60(TB) leukemia = test system: HL-60(TB) leukemia
MDA-MB-231 breast = test system: MDA-MB-231 breast
KM12 colon = test system: KM12 colon
OVCAR-8 ovarian = test system: OVCAR-8 ovarian
SNB-75 CNS = test system: SNB-75 CNS
A498 renal = test system: A498 renal
HT29 colon = test system: HT29 colon
LOX IMVI melanoma = test system: LOX IMVI melanoma
NCI/ADR-RES ovarian = test system: NCI/ADR-RES ovarian
SF-268 CNS = test system: SF-268 CNS
HCC-2998 colon = test system: HCC-2998 colon
OVCAR-3 ovarian = test system: OVCAR-3 ovarian
RXF 393 renal = test system: RXF 393 renal
K-562 leukemia = test system: K-562 leukemia
OVCAR-5 ovarian = test system: OVCAR-5 ovarian
A549 NSCLC = test system: A549 NSCLC
SK-MEL-2 melanoma = test system: SK-MEL-2 melanoma
HOP-92 NSCLC = test system: HOP-92 NSCLC
DU-145 prostate = test system: DU-145 prostate
UO-31 renal = test system: UO-31 renal
MALME-3M melanoma = test system: MALME-3M melanoma
OVCAR-4 ovarian = test system: OVCAR-4 ovarian
SW-620 colon = test system: SW-620 colon
SK-MEL-5 melanoma = test system: SK-MEL-5 melanoma
HCT-15 colon = test system: HCT-15 colon
NCI-H23 lung = test system: NCI-H23 lung
786-0 renal = test system: 786-0 renal

O=C(Nc1ccc(-c2nc(-c3cccc(O)c3)c(-c3ccnc(Br)c3)[nH]2)cc1)c1ccccc1
GI50 (SK-MEL-28 melanoma): 1760 nM | TGI (SK-MEL-28 melanoma): 4820 nM | GI50 (MOLT-4 leukemia): 2000 nM | TGI (MOLT-4 leukemia): 7480 nM | GI50 (CAKI-1 renal): 1980 nM | TGI (CAKI-1 renal): 5800 nM | GI50 (NCI-H226 lung): 2330 nM | TGI (NCI-H226 lung): 6530 nM | GI50 (PC-3 prostate): 1900 nM | TGI (PC-3 prostate): 5840 nM | GI50 (UACC-62 melanoma): 1730 nM | TGI (UACC-62 melanoma): 4090 nM | GI50 (T-47D breast): 1730 nM | TGI (T-47D breast): 4730 nM | GI50 (IGROV1 ovarian): 2620 nM | TGI (IGROV1 ovarian): 6530 nM | GI50 (BT-549 breast): 1800 nM | TGI (BT-549 breast): 5790 nM | GI50 (SF-539 CNS): 1510 nM | TGI (SF-539 CNS): 4780 nM | GI50 (ACHN renal): 2430 nM | TGI (ACHN renal): 7420 nM | GI50 (CCRF-CEM leukemia): 1320 nM | TGI (CCRF-CEM leukemia): > 100000 nM | GI50 (HOP-62 NSCLC): 2540 nM | TGI (HOP-62 NSCLC): 9050 nM | GI50 (COLO 205 colon): 1990 nM | TGI (COLO 205 colon): 4840 nM | GI50 (RPMI-8226 leukemia): 595 nM | TGI (RPMI-8226 leukemia): 2890 nM | GI50 (NCI-H522 lung): 2010 nM | TGI (NCI-H522 lung): 5350 nM | GI50 (HCT-116 colon): 2260 nM | TGI (HCT-116 colon): 7600 nM | GI50 (SF-295 CNS): 340 nM | TGI (SF-295 CNS): 1160 nM | GI50 (HS 578T breast): 308 nM | TGI (HS 578T breast): 946 nM | GI50 (SN12C renal): 2680 nM | TGI (SN12C renal): 8950 nM | GI50 (NCI-H460 lung): 2450 nM | TGI (NCI-H460 lung): 6520 nM | GI50 (SK-OV-3 ovarian): 2680 nM | TGI (SK-OV-3 ovarian): 7090 nM | GI50 (UACC-257 melanoma): 2210 nM | TGI (UACC-257 melanoma): 5840 nM | GI50 (EKVX NSCLC): 2140 nM | TGI (EKVX NSCLC): 6190 nM | GI50 (SNB-19 CNS): 1830 nM | TGI (SNB-19 CNS): 7140 nM | GI50 (TK-10 renal): 2920 nM | TGI (TK-10 renal): 8030 nM | GI50 (SR leukemia): 1260 nM | TGI (SR leukemia): > 100000 nM | GI50 (HL-60(TB) leukemia): 1370 nM | TGI (HL-60(TB) leukemia): 6820 nM | GI50 (MDA-MB-231 breast): 2590 nM | TGI (MDA-MB-231 breast): 17100 nM | GI50 (KM12 colon): 2440 nM | TGI (KM12 colon): 7130 nM | GI50 (OVCAR-8 ovarian): 2600 nM | TGI (OVCAR-8 ovarian): > 100000 nM | GI50 (SNB-75 CNS): 286 nM | TGI (SNB-75 CNS): 3370 nM | GI50 (A498 renal): 1660 nM | TGI (A498 renal): 4530 nM | GI50 (HT29 colon): 2850 nM | TGI (HT29 colon): > 100000 nM | GI50 (LOX IMVI melanoma): 1520 nM | TGI (LOX IMVI melanoma): 3950 nM | GI50 (NCI/ADR-RES ovarian): 3000 nM | TGI (NCI/ADR-RES ovarian): 12400 nM | GI50 (SF-268 CNS): 2210 nM | TGI (SF-268 CNS): 6950 nM | GI50 (HCC-2998 colon): 2270 nM | TGI (HCC-2998 colon): 6370 nM | GI50 (OVCAR-3 ovarian): 2090 nM | TGI (OVCAR-3 ovarian): 5670 nM | GI50 (RXF 393 renal): 294 nM | TGI (RXF 393 renal): 869 nM | GI50 (K-562 leukemia): 2120 nM | TGI (K-562 leukemia): > 100000 nM | GI50 (OVCAR-5 ovarian): 2920 nM | TGI (OVCAR-5 ovarian): 19100 nM | GI50 (A549 NSCLC): 2950 nM | TGI (A549 NSCLC): > 100000 nM | GI50 (SK-MEL-2 melanoma): 2020 nM | TGI (SK-MEL-2 melanoma): 5460 nM | GI50 (HOP-92 NSCLC): 1840 nM | TGI (HOP-92 NSCLC): 4730 nM | GI50 (DU-145 prostate): 2760 nM | TGI (DU-145 prostate): 8740 nM | GI50 (UO-31 renal): 2560 nM | TGI (UO-31 renal): 6560 nM | GI50 (MALME-3M melanoma): 1830 nM | TGI (MALME-3M melanoma): 4710 nM | GI50 (OVCAR-4 ovarian): 2270 nM | TGI (OVCAR-4 ovarian): 6090 nM | GI50 (SW-620 colon): 2370 nM | TGI (SW-620 colon): 7170 nM | GI50 (SK-MEL-5 melanoma): 1790 nM | TGI (SK-MEL-5 melanoma): 3230 nM | GI50 (HCT-15 colon): 2010 nM | TGI (HCT-15 colon): 7290 nM | GI50 (NCI-H23 lung): 2040 nM | TGI (NCI-H23 lung): 4780 nM | GI50 (786-0 renal): 1080 nM | TGI (786-0 renal): 4030 nM
